From ChEMBL document CHEMBL5608196, “1,3,5-Triazine as a promising scaffold in the development of therapeutic agents against breast cancer” (Eur J Med Chem, 2024)

Assays:
[1] = molecular target: T1, Epidermal growth factor receptor (Homo sapiens, UniProt P00533); assay: Inhibition of EGFR (unknown origin) by ELISA
MCF7 [2] = assay: Inhibition of cell viability in human MCF7 cells incubated for 48 hrs by MTT assay; type: functional, cell-based; settings: MCF7, 48 h
MCF7 [3] = assay: Cytotoxicity against human MCF7 cells assessed as cell growth inhibition incubated for 72 hrs by MTT assay; type: functional, cell-based; settings: MCF7, 72 h
MDA-MB-468 [4] = assay: Anticancer activity against human MDA-MB-468 cells assessed as cell growth inhibition incubated for 48 hrs by SRB assay; type: functional, cell-based; settings: MDA-MB-468, 48 h
MDA-MB-468 [5] = assay: Anticancer activity against human MDA-MB-468 cells assessed as cell growth inhibition under hypoxia incubated for 48 hrs by SRB assay relative to control; type: functional
MDA-MB-231 [6] = assay: Cytotoxicity against human MDA-MB-231 cells incubated for 72 hrs by MTT assay; type: functional, cell-based; settings: MDA-MB-231, 72 h
MCF7 [7] = assay: Anticancer activity against human MCF7 cells incubated for 24 to 72 hrs by MTT assay; type: functional, cell-based
MCF7 [8] = assay: Anticancer activity against human MCF7 cells; type: functional, cell-based
[9] = molecular target: T2, Phosphatidylinositol 4,5-bisphosphate 3-kinase catalytic subunit alpha isoform (Homo sapiens, UniProt P42336); assay: Inhibition of PI3K-alpha (unknown origin) at 100 uM relative to control
[10] = molecular target: T1, Epidermal growth factor receptor; assay: Inhibition of EGFR (unknown origin) using Poly (Glu, Tyr) as substrate at 10 uM incubated for 40 mins in presence of ATP by Kinase-Glo Plus luminescence kinase assay relative to control
MCF7 [11] = assay: Anticancer activity against human MCF7 cells incubated for 24 hrs by MTT assay; type: functional, cell-based; settings: MCF7, 24 h
Carbonic anhydrase 9 = Carbonic anhydrase 9 (Homo sapiens, UniProt Q16790); assay: Inhibition of human CA-IX
[12] = molecular target: T1, Epidermal growth factor receptor; assay: Inhibition of EGFR (unknown origin)
[13] = Inhibition of PI3K (unknown origin); parameters: species or system Homo sapiens
MCF7 [14] = assay: Antitumor activity against human MCF7 cells by MTT assay
[15] = molecular target: Serine/threonine-protein kinase mTOR (Homo sapiens, UniProt P42345); assay: Inhibition of mTOR (unknown origin)
MCF7 [16] = assay: Anti-proliferative activity against human MCF7 cells incubated for 72 hrs by MTT assay; type: functional, cell-based; settings: MCF7, 72 h
MCF7 [17] = assay: Anticancer activity against human MCF7 cells incubated for 48 hrs by MTT assay; settings: MCF7, 48 h
MCF7 [18] = assay: Inhibition of cell proliferation of human MCF7 cells incubated for 24 hrs by MTT assay; type: functional, cell-based; settings: MCF7, 24 h
MDA-MB-231 [19] = assay: Inhibition of cell proliferation of human MDA-MB-231 cells incubated for 24 hrs by MTT assay; type: functional, cell-based; settings: MDA-MB-231, 24 h
MDA-MB-231 [20] = assay: Inhibition of cell survival in human MDA-MB-231 cells incubated for 72 hrs by MTT assay; type: functional, cell-based; settings: MDA-MB-231, 72 h
MCF7 [21] = assay: Anti-proliferative activity against human MCF7 cells by MTT assay; type: functional, cell-based
MCF7 [22] = assay: Anti-cancer activity against human MCF7 cells; type: functional, cell-based
MCF7 [23] = assay: Cytotoxicity against human MCF7 cells
[24] = molecular target: T2, Phosphatidylinositol 4,5-bisphosphate 3-kinase catalytic subunit alpha isoform; assay: Inhibition of PI3K-alpha (unknown origin)
MDA-MB-231 [25] = assay: Antiproliferative activity against human MDA-MB-231 cells; type: functional, cell-based
MDA-MB-468 [26] = assay: Anticancer activity against human MDA-MB-468 cells assessed as cell growth inhibition under normoxia at 10 uM incubated for 48 hrs by SRB assay relative to control; type: functional; settings: read-out: GI

T1 sequence (P00533 whole entry): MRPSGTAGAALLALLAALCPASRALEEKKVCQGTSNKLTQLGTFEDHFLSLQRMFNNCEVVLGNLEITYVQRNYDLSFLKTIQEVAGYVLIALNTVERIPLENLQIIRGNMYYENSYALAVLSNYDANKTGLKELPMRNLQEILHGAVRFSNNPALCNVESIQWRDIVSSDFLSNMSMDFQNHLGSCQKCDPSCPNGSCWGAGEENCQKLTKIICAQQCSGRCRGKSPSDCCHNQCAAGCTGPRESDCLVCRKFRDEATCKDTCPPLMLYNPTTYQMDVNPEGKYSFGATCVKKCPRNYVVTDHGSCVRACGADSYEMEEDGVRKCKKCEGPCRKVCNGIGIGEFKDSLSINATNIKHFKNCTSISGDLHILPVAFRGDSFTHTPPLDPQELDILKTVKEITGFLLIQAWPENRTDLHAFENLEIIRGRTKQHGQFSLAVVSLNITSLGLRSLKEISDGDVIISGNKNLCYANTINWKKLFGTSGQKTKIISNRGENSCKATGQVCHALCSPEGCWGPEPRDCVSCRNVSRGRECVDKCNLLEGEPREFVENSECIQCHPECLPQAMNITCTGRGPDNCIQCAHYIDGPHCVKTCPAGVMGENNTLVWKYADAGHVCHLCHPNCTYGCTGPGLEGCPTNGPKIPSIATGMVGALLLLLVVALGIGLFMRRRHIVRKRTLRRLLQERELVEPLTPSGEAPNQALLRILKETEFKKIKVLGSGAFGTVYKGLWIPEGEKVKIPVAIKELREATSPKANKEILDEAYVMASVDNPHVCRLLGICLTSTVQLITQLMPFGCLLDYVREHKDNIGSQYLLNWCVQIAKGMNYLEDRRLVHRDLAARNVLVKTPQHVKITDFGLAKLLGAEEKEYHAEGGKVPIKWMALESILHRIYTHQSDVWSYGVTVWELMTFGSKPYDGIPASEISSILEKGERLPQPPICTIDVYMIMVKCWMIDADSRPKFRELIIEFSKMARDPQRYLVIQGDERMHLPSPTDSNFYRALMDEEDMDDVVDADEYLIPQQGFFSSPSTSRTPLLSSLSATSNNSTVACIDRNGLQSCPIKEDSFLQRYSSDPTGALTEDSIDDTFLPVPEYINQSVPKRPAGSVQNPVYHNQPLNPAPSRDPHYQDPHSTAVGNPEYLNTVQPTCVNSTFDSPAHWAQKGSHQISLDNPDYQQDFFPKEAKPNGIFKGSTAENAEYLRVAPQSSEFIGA
T2 sequence (P42336 whole entry, canonical isoform): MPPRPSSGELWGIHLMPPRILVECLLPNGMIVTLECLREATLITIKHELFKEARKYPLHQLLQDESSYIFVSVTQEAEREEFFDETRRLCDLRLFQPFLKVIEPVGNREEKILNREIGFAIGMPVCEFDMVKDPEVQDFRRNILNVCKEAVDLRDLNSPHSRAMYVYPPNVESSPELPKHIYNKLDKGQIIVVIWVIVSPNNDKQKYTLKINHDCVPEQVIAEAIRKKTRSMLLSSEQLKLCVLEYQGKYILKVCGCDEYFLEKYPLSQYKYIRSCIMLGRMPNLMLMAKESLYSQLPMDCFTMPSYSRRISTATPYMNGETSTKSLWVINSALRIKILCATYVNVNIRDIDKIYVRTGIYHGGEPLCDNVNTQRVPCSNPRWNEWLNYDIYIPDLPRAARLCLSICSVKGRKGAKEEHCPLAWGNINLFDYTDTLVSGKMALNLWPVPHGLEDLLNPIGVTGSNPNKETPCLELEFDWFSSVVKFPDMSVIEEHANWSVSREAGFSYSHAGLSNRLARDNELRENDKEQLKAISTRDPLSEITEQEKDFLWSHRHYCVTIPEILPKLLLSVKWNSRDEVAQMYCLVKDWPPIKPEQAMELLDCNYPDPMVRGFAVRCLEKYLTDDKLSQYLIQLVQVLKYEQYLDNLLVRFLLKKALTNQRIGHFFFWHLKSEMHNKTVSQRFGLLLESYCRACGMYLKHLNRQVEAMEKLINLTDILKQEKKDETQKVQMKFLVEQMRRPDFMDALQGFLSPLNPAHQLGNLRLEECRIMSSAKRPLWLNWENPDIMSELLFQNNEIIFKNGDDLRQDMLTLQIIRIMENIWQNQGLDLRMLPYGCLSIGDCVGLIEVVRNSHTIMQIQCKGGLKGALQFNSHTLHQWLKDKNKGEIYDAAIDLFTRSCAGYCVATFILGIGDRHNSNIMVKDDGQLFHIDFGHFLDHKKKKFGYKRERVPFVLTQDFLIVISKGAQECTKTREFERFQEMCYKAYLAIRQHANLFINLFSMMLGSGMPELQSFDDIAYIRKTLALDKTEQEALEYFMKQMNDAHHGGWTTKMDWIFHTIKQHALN

## CN(C)c1nc(Cl)nc(NC2=NN(c3ccc(Br)cc3)C(c3ccc(C(F)(F)F)cc3)C2)n1 (stereo unspecified)
[1]
  IC50: 287 nM
MCF7 [2]
  IC50: 12.8 nM

## COc1cc(-c2nc(N)nc(Nc3ccc(C)cc3)n2)cc(OC)c1OC
MCF7 [3]
  IC50: > 20000 nM

## N#C/C(=C\c1cccc(F)c1)c1nc(N)nc(Nc2ccc(S(N)(=O)=O)cc2)n1
MDA-MB-468 [4]
  IC50: 1480 nM
MDA-MB-468 [5]
  growth inhibition (GI): 65%

## C=CCc1cc(C)cc(/C=N/NC(=O)Nc2ccc(-c3nc(N4CCOCC4)nc(N4CCOCC4)n3)cc2)c1O
MDA-MB-231 [6]
  IC50: 600 nM

## Cc1nc2ccc(Br)cc2c(=O)n1Nc1nc(Nc2ccc([N+](=O)[O-])cc2)nc(N2CCNCC2)n1
MCF7 [7]
  IC50: 9540 nM

## CCN(CC)c1nc(Nc2ccc(S(=O)(=O)NC(=N)N)cc2)nc(NN2CCOCC2)n1
MCF7 [8]
  IC50: > 100000 nM
[9]
  inhibition: 68%

## CCOC(=O)C1=CN(c2nc(Nc3cccc(F)c3)nc(Nc3cccc(F)c3)n2)C(=S)NC1c1ccccc1OC (stereo unspecified)
[10]
  inhibition: 94.3%
MCF7 [11]
  IC50: 47400 nM

## NS(=O)(=O)c1ccc(CNc2nc(Cl)nc(Nc3ccc(O)cc3)n2)cc1
Carbonic anhydrase 9
  Ki: 0.4 nM

## CC1=NN(c2nc(Nc3ccc(Br)cc3)nc(-n3nc(C)cc3C)n2)C(C)C1 (stereo unspecified)
MCF7 [8]
  IC50: 2660 nM

## Cc1cc(C)n(-c2nc(Nc3ccc(Br)cc3)nc(N3CCOCC3)n2)n1
[12]
  IC50: 61 nM
MCF7 [8]
  IC50: 4530 nM

## FC(F)c1nc2ccccc2n1-c1nc(N2CCOCC2)nc(N2CCOCC2)n1 [ZSTK-474]
[13]
  IC50: 37 nM

## COc1ccc(Nc2nc(N3CCCC3)nc(-n3nc(C)cc3C)n2)cc1
MCF7 [8]
  IC50: 3760 nM

## CS(=O)(=O)N1CCN(Cc2ccc(-c3nc(-c4cnc(N)nc4)nc(N4CCOCC4)n3)s2)CC1
MCF7 [14]
  IC50: 1250 nM
[15]
  IC50: 48 nM

## C(=N\Nc1nc(N2CCOCC2)nc(N2CCOCC2)n1)/c1ccccc1
MCF7 [16]
  IC50: 1000 nM

## CCN(CC)c1nc(NC(=S)NNc2ccnc3ccccc23)nc(N(CC)CC)n1
[10]
  inhibition: 90.5%
MCF7 [17]
  IC50: 32300 nM

## COc1nc(Nc2ccc(C#N)cc2)nc(-c2ccc(N)cc2)n1
MCF7 [18]
  IC50: 770 nM
MDA-MB-231 [19]
  IC50: 8430 nM

## Cc1nc2ccc(Br)cc2c(=O)n1Nc1nc(Nc2cccc(Cl)c2)nc(N2CCNCC2)n1
MCF7 [7]
  IC50: 7160 nM

## Nc1nc(COC(=O)c2ccc([N+](=O)[O-])cc2)nc(Nc2ccccc2)n1
MDA-MB-231 [20]
  IC50: 6000 nM

## COc1ccc(Nc2nc(N3CCOCC3)nc(-n3nc(C)cc3C)n2)cc1
MCF7 [8]
  IC50: 2930 nM

## CN(C)c1ccc(-c2nc(N)nc(Nc3ccccc3F)n2)cc1
MCF7 [3]
  IC50: > 20000 nM

## Cc1cc(/C=N/NC(=O)Nc2ccc(-c3nc(N4CCOCC4)nc(N4CCOCC4)n3)cc2)cc(C)c1O
MDA-MB-231 [6]
  IC50: 400 nM

## CC1=NN(c2nc(Nc3ccc(Cl)cc3)nc(-n3nc(C)cc3C)n2)C(C)C1 (stereo unspecified)
MCF7 [8]
  IC50: 2290 nM

## NCc1ccc(-c2nc(N/N=C/c3ccc(Cl)cc3)nc(N3CCCCC3)n2)cc1
MCF7 [16]
  IC50: 3290 nM

## CCOC(=O)C1=CN(c2nc(Nc3cccc(F)c3)nc(Nc3cccc(F)c3)n2)C(=S)NC1c1ccc(F)cc1 (stereo unspecified)
[10]
  inhibition: 96.4%
MCF7 [11]
  IC50: 41500 nM

## COc1nc(Nc2ccc(C#N)cc2)nc(N2CCOCC2)n1
MCF7 [18]
  IC50: 4290 nM
MDA-MB-231 [19]
  IC50: 7800 nM

## CN(C)c1nc(Cl)nc(NC2=NN(c3ccc(C(F)(F)F)cc3)C(c3ccc(C(F)(F)F)cc3)C2)n1 (stereo unspecified)
[1]
  IC50: 229 nM
MCF7 [2]
  IC50: 70.7 nM

## COc1nc(N/N=C/c2ccccc2)nc(-c2ccc(N)cc2)n1
MCF7 [21]
  IC50: 3980 nM

## COc1ccc(/C=N/NC(=O)Nc2ccc(-c3nc(N4CCOCC4)nc(N4CCOCC4)n3)cc2)cc1
MDA-MB-231 [6]
  IC50: 520 nM

## COc1nc(OC)nc(-c2nc(-c3nnc(-c4cc([N+](=O)[O-])c(Br)c([N+](=O)[O-])c4)o3)co2)n1
MCF7 [22]
  IC50: 95 nM

## Cc1nc2cc(Br)c(Br)cc2c(=O)n1-c1ccc(Nc2nc(N3CCCCC3)nc(N3CCOCC3)n2)cc1
MCF7 [17]
  IC50: 17200 nM

## O=[N+]([O-])c1ccc(Nc2nc(NC(=S)NNc3ccnc4ccccc34)nc(Nc3ccc([N+](=O)[O-])cc3)n2)cc1
[10]
  inhibition: 96.3%
MCF7 [17]
  IC50: 52200 nM

## CNc1nc(Nn2c(C)nc3ccc(Br)cc3c2=O)nc(N2CCNCC2)n1
MCF7 [7]
  IC50: 9520 nM

## CNC(=O)Nc1ncc(-c2nc(-c3ccc(CN4CCN(S(C)(=O)=O)CC4)s3)nc(N3CCOCC3)n2)cn1
MCF7 [23]
  IC50: 30 nM
[15]
  IC50: 10.9 nM

## CN(C)C(=O)C1CCC(Oc2nc(-c3cccc4[nH]ncc34)nc(N3CCOCC3)n2)CC1 (stereo unspecified)
[24]
  IC50: 60 nM

## CC1CCN(c2nc(Cl)nc(Oc3ccc(-c4coc5cc(Oc6nc(Cl)nc(N7CCC(C)CC7)n6)cc(O)c5c4=O)cc3)n2)CC1
MDA-MB-231 [25]
  IC50: 23100 nM

## NCc1ccc(-c2nc(N/N=C/c3ccc(Br)cc3)nc(N3CCCCC3)n2)cc1
MCF7 [21]
  IC50: 4630 nM

## CN(C)c1ccc(/C=C(\C#N)c2nc(N)nc(Nc3ccc(S(N)(=O)=O)cc3)n2)cc1
MDA-MB-468 [4]
  IC50: 1480 nM
MDA-MB-468 [5]
  growth inhibition (GI): 60%
MDA-MB-468 [26]
  inhibition of growth at 10 µM: 62%

## CCN(CC)c1nc(Nc2ccc(S(=O)(=O)NC(=N)N)cc2)nc(NC2CCCCC2)n1
MCF7 [8]
  IC50: 18400 nM

## COc1nc(OC)nc(-c2nc(-c3nnc(-c4cc(OC)c(OC)c(OC)c4)o3)co2)n1
MCF7 [22]
  IC50: 25 nM

## COc1nc(OC)nc(-c2nc(-c3nnc(-c4cc([N+](=O)[O-])cc([N+](=O)[O-])c4)o3)co2)n1
MCF7 [22]
  IC50: 1340 nM

## COc1cc(OC)cc(-c2nnc(-c3coc(-c4nc(OC)nc(OC)n4)n3)o2)c1
MCF7 [22]
  IC50: 110 nM

## Nc1ncc(-c2nc(-c3ccc(CN4CCOCC4)s3)nc(N3CCOCC3)n2)cn1
MCF7 [14]
  IC50: 2650 nM
[15]
  IC50: 69 nM

## Cc1nc2cc(Br)c(Br)cc2c(=O)n1-c1ccc(Nc2nc(Nc3ccc(Cl)cc3)nc(N3CCCCC3)n2)cc1
MCF7 [17]
  IC50: 18400 nM

## Cc1nc2cc(Br)c(Br)cc2c(=O)n1-c1ccc(Nc2nc(Nc3ccc(Br)cc3)nc(N3CCCCC3)n2)cc1
MCF7 [17]
  IC50: 17800 nM

## CCN(CC)c1nc(Nc2ccccc2)nc(Nc2ccc(S(=O)(=O)NC(=N)N)cc2)n1
MCF7 [8]
  IC50: 17500 nM
